The values that follow come from patent US5041460A, “Heter-aliphatic carboxamides” (ICI Americas Inc., priority 1989, dated 1991).

This assay addresses T1, LTD4 /E4 receptors (Cavia porcellus, UniProt Q2NNR5).
T1 construct: membrane fractions, containing the LTD4 /E4 receptors, are prepared from guinea-pig lung parenchyma; from tissue; host or cells: guinea-pig lung parenchyma membrane fractions
T1 sequence (Q2NNR5 1-340): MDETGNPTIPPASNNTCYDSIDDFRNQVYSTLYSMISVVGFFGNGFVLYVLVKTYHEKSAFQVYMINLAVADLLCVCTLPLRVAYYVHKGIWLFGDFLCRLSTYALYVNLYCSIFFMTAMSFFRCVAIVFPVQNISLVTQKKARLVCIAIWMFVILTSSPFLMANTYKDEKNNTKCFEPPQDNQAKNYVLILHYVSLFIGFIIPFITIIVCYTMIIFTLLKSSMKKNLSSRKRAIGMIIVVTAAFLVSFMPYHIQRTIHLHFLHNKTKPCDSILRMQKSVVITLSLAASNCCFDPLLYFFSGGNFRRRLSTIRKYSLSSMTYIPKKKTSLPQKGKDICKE
The experiment in a line: receptor-ligand binding assay, 3H-LTD4 on guinea-pig lung parenchyma membrane fractions. To be noted: 1 nM 3H-LTD4, 30 minutes at 22° C.; Ki calculated from IC50 by the Cheng-Prusoff equation. On the procedure:
According to this procedure, membrane fractions, containing the LTD4 /E4 receptors, are prepared from guinea-pig lung parenchyma and incubated for 30 minutes at 22° C. with 1 nM ^3 H-LTD4 in the absence or presence of tested antagonist. Specific binding, determined under conditions that prevent enzymatic metabolism of ^3 H-LTD4, is the net result of total ^3 H-LTD4 binding minus nonspecific binding determined in the presence of […] excess unlabelled LTD4. Each assay is done in duplicate and results (Ki values) are typically a mean of several such determinations in individual receptor batches.
The % inhibition by a tested antagonist, relative to control binding (vehicle alone), is expressed as a […] of log[antagonist] concentration (in molar units) and the half-maximal inhibition (IC50) determined by computerized non-linear least-square analysis. The binding constant (Ki) is then calculated from IC50 by the Cheng-Prusoff equation: [formula] where [L] is ^3 H-LTD4 concentration and Kd is the affinity constant of LTD4 to this receptor, determined separately for each batch. (Biochem. Pharmacol. 22: 3099-3108, 1973).

The term Ki denotes a measure of affinity in units of concentration, obtained from inhibition or displacement. With `COc1cc(C(=O)NS(=O)(=O)c2ccccc2C)ccc1Cc1cn(C)c2ccc(CCNC(=O)N(C)C)cc12` [Example 4, 4-[5-[2-(N',N'-Dimethylureido)ethyl]-1-methylindol-3-ylmethyl]-3-methoxy-N-(2-methylphenylsulfonyl)benzamide], the Ki was 1 nM.
